Results: patent US20030022812A1, “Treating pain by targeting hyperpolarization-activated, cyclic nucleotide-gated channels” (priority 2001, published 2003)

Biological target: T1, human HCN1 (Homo sapiens, UniProt O60741)
T1 construct: expressed in transfected cells; host or cells: Xenopus laevis oocytes injected with cRNA transcribed from pGEMHE-human HCN1
T1 sequence (O60741 1-890): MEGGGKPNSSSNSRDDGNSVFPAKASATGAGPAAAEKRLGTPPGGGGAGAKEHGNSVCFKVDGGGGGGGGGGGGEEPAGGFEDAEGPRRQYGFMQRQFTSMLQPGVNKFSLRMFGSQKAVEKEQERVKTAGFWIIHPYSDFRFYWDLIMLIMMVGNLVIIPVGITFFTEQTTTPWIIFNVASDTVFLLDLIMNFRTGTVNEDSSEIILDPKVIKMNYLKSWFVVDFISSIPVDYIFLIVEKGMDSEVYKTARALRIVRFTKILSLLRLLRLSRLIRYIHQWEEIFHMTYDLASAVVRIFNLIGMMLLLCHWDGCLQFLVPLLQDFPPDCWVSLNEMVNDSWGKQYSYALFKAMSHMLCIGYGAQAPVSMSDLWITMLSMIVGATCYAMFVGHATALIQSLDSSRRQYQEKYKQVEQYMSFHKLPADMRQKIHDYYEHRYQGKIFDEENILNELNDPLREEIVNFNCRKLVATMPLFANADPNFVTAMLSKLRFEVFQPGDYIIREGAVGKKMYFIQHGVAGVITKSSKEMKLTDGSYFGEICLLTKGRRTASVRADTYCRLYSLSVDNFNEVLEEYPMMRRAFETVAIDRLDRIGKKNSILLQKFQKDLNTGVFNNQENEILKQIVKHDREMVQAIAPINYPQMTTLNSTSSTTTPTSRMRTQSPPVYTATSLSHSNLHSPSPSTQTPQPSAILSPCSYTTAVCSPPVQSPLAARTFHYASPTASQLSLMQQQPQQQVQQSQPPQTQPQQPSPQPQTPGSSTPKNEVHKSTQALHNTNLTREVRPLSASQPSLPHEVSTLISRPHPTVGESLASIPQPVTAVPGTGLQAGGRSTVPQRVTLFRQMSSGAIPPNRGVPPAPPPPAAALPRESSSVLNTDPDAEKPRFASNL
Assay: Two-electrode voltage clamp of Xenopus oocytes injected with human HCN1 cRNA
Format: cell-based
Conditions: Cs+ 3 mM; for block of HCN1 currents: n=3
Method: Xenopus laevis oocytes were prepared and injected using standard methods previously described and known in the art [Fraser et al. (1993). Electrophysiology: a practical approach. D. I. Wallis, IRL Press at Oxford University Press, Oxford: 65-86]. Ovarian lobes from adult female Xenopus laevis (Nasco, Fort Atkinson, Wis.) were teased apart, rinsed several times in nominally Ca-free saline containing: 82.5 mM NaCl, 2.5 mM KCl, 1 mM MgCl2, 5 mM HEPES, adjusted to pH 7.0 with NaOH (OR-2), and gently shaken in OR-2 containing 0.2% collagenase Type 1 (ICN Biomedicals, Aurora, Ohio) for 2-5 hours. When approximately 50% of the follicular layers were removed, Stage V and VI oocytes were selected and rinsed in media consisting of 75% OR-2 and 25% ND-96. The ND-96 contained: 100 mM NaCl, 2 mM KCl, 1 mM MgCl2, 1.8 mM CaCl2, 5 mM HEPES, 2.5 mM Na pyruvate, gentamicin (50 ug/ml), adjusted to pH 7.0 with NaOH. […] For in vitro transcription, PGEM HE (Liman et al., (1992) Neuron 9: 861-71) containing human HCN1 was linearized with NheI and transcribed with T7 RNA polymerase (Promega) in the presence of the cap analog m7G(5′)ppp(5′)G. The synthesized cRNA was precipitated with ammonium acetate and isopropanol, and resuspended in 50 μl nuclease-free water. cRNA was quantified using formaldehyde gels (1% agarose, 1×MOPS, 3% formaldehyde) against 1,2 and 5 μl RNA markers (Gibco BRL, 0.24-9.5 Kb).
Oocytes were injected with 50 nl of human HCN1 RNA (1-10 ng). Control oocytes were injected with 50 nl of water. Oocytes were incubated for 2 days in ND-96 before analysis for expression of human HCN1. Incubations and collagenase digestion were carried out at room temperature. Injected oocytes were maintained in 48 well cell culture clusters (Costar; Cambridge, Mass.) at 18° C. Whole cell voltage-activated currents were measured 2 days after injection with a conventional two-electrode voltage clamp (GeneClamp500, Axon Instruments, Foster City, Calif.) using standard methods previously described and known in the art (Dascal et al., (1987) Pflugers Arch 409: 512-20). The microelectrodes, which had resistances of ˜1 MΩ, were filled with 3 M KCl. Cells were continuously perfused with ND96 at ˜10 ml/min at room temperature. Membrane voltage was clamped at −30 mV unless indicated.
Oocytes were challenged with a series of hyperpolarizing voltage steps from a holding potential of −30 mV. Voltage steps (800 msec duration) to −40 through −180 mV in 20 mV intervals were applied to oocytes at a sampling rate of […]. Hyperpolarizing voltage steps activated an inward current having a threshold of about −60 mV. […] Cs^+ blocked HCN1 currents by 94, 92 and 90% when Ih was evoked by stepping to −80, −100 and −120 mV, respectively. […]

`[Cl-].[Cs+]` [Cs^+, CsCl] was tested, and the “effect on endogenous oocyte inward currents” value was “no effect”, the “block of HCN1 currents” value (Ih evoked by stepping to −80 mV) was 94% and the “block of HCN1 currents” value (Ih evoked by stepping to −100 mV) was 92%. For the same molecule, the “block of HCN1 currents” value (Ih evoked by stepping to −120 mV) was 90%.
